From US6358695B1, “Methods of screening for agonists and antagonists of the HNEAA81 receptor” (SmithKline Beecham Corporation, priority 1997, dated 2002)

Biological target: T1, HNEAA81 (Homo sapiens, UniProt Q9BPV8)
T1 construct: expressed in transfected cells; host or cells: HEK-293 (transient co-transfection)
T1 sequence (Q9BPV8 1-333 isoform Q9BPV8-2): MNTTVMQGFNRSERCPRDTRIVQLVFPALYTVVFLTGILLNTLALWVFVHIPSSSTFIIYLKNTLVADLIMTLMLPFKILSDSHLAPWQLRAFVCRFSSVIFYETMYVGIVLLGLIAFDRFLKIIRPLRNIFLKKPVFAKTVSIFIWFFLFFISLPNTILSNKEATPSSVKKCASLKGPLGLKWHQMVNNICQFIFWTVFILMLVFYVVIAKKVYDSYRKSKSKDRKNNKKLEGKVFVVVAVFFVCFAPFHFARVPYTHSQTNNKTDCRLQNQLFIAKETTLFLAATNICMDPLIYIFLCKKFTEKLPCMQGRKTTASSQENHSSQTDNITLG
Experiment: FLIPR calcium mobilisation response in HEK-293 cells transiently co-transfected with HNEAA81 and G-proteins
Type: cell-based
Settings: for calcium mobilization response (in words): HEK-293 cells transfected with HNEAA81 and the G-proteins
Method: HEK-293 cells were transiently co-transfected with a mammalian expression plasmid encoding HNEAA81 polypeptide, along with cDNAs encoding either the promiscuous G-protein Gal6 or the chimeric G-proteins Gql5 or Gqo5and assayed on FLIPR (Fluorometric Imaging Plate Reader) for a calcium mobilisation response following addition of AP6A or AP5A or d-UDP.
A dose-dependent (EC50s ˜300 nM), calcium mobilization response was detected following addition of AP6A (response with AP5A or d-UDP not so strong) to cells transfected with HNEAA81 and the G-proteins. […] The cDNAs for both the receptor and the G-proteins had to be expressed in the HEK-293 in order to detect a functional response to these agonists.

Row | calcium mobilization response (in words) | EC50 (HEK-293 cells transfected with HNEAA81 and the G-proteins (Gal6 or Gql5 or Gqo5), read-out: EC50 of dose-dependent calcium mobilization response) [nM] | SMILES
1 | not so strong | – | Nc1ncnc2c1ncn2C1OC(COP(=O)(O)OP(=O)(O)OP(=O)(O)OP(=O)(O)OP(=O)(O)OCC2OC(n3cnc4c(N)ncnc43)C(O)C2O)C(O)C1O (stereo not shown) [AP5A, di-adenosine pentaphosphate]
2 | dose-dependent | ~300 | Nc1ncnc2c1ncn2C1OC(COP(=O)(O)OP(=O)(O)OP(=O)(O)OP(=O)(O)OP(=O)(O)OP(=O)(O)OCC2OC(n3cnc4c(N)ncnc43)C(O)C2O)C(O)C1O (stereo not shown) [AP6A, di-adenosine hexaphosphate]
3 | not so strong | – | O=c1ccn(C2OC(COP(=O)(O)OP(=O)(O)O)CC2O)c(=O)[nH]1 (stereo not drawn) [d-UDP]
